Laboratory results from PMC6151529, “Design, Synthesis and Biological Evaluation of N,N-Substituted Amine Derivatives as Cholesteryl Ester Transfer Protein Inhibitors” (Molecules : A Journal of Synthetic Chemistry and Natural …, 2017).

Legend:
CETP = target: T1, CETP (Homo sapiens, UniProt P11597); test: CETP inhibitory activity, BODIPY-CE fluorescence assay (CETP RP Activity Assay Kit); format: biochemical
T1 construct: purchased Roar, New York, NY, USA RB-RPAK
T1 sequence (P11597 18-493): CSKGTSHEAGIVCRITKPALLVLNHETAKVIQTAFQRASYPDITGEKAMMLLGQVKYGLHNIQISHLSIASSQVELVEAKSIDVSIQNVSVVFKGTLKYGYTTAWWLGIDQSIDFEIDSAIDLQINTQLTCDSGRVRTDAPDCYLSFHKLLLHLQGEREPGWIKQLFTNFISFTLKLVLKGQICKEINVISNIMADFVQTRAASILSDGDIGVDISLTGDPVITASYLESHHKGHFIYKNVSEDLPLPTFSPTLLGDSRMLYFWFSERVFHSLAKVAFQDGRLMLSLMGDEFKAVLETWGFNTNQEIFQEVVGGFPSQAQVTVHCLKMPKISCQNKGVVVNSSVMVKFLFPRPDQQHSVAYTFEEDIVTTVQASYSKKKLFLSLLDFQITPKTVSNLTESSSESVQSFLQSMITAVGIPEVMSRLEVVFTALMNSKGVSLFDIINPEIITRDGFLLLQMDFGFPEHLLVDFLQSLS
Description: All tested compounds were dissolved in 100% DMSO, making sure the compound was dissolved totally. The solution was vibrated hard on an oscillator for more than 30 s and then stored in a nitrogen cabinet. The stock solutions (10 mM) were diluted with DMSO for an 8-point titration (1:5 serial dilutions) in a 96-well dilution plate. […] Compounds were tested at eight concentrations, and the fluorescence intensity were measured using a fluorometer (ExEm = 465/535 nm). The IC50 was determined from a curve fit of the data with each concentration tested three times.

CYP2D6 = target: T2, CYP2D6 (Homo sapiens, UniProt P10635); test: Cytochrome P450 inhibition assay, CYP2D6; format: in vitro ADME; settings: 10 μM compound, human liver microsomes 0.25 mg/mL, substrate dextromethorphan
T2 construct: from tissue; host or cells: human liver microsomes
T2 sequence (P10635 whole entry): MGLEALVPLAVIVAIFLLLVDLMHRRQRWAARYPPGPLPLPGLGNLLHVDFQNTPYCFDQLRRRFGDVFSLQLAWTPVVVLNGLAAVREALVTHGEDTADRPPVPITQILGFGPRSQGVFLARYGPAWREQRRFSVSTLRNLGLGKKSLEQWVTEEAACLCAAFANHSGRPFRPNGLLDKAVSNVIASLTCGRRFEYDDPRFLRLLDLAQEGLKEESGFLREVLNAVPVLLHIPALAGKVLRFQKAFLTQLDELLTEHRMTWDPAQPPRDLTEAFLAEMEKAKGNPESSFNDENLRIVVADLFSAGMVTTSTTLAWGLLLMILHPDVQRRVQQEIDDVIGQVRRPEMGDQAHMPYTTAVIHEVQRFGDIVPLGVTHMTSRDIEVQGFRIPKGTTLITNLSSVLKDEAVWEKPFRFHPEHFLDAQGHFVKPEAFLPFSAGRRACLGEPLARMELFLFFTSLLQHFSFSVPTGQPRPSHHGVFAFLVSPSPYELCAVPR
Description: (§1) Five specific probe substrates (CYP3A4, 2 μM midazolam; CYP2D6, 5 μM dextromethorphan; CYP2C9, 5 μM diclofenac; CYP1A2, 10 μM phenacetin; CYP2C19, 30 μM S-mephenytoin) were used to evaluated cytochrome P450 inhibition in human liver microsomes (0.25 mg/mL). A mixture of 20 μL specific probe substrate solution and 20 μL buffer solution (100 mM K3PO4, 33 mM MgCl2, pH = 7.4) was added compound (2 μL) and 158 μL human liver microsomes solution (0.25 mg/mL). The mixture were incubated at 37 °C for 10 min and another 10 min underwent after 20 μL NADPH solution added. Consecutively, 400 µL cold stop solution (200 ng/mL tolbutamide and 200 ng/mL labetalol in acetonitrile) was added to terminated the reaction. After the reactions were terminated, The plates were centrifuged (4000 rpm) at room temperature for 20 min, and the supernatants were analysed by LC/MS/MS.

[1] = Metabolic stability in human liver microsomes; format: in vitro ADME; settings: 37 °C, NADPH, 0-60 min, read-out: HLM Stability (human liver microsomal intrinsic clearance)
Description: (§2) Ten μL (100 μM/L) of compound and 80 μL liver microsomes were mixture and incubated at 37 °C for 10 min, and then 10 μL NADPH regenerating system was added. Samples were obtained at 0 min, 5 min, 10 min, 20 min, 30 min and 60 min respectively, and 300 μL stop solution (cold in 4 °C, including 100 ng/mL tolbutamide and 100 ng/mL labetalol) was added to terminate the reaction. After oscillating for 10 min, the plates were centrifuged (4000 rpm) at room temperature for 20 min, and the supernatants were used for analyzation.

CYP3A4 = target: T3, CYP3A4 (Homo sapiens, UniProt P08684); test: Cytochrome P450 inhibition assay, CYP3A4; format: in vitro ADME; settings: human liver microsomes, pH 7.4, probe midazolam (2 μM), 10 μM compound, human liver microsomes 0.25 mg/mL, substrate midazolam, read-out: CYPs Direct Inhibition Mean (10 μM) 3A4
T3 construct: from tissue; host or cells: human liver microsomes
T3 sequence (P08684 whole entry): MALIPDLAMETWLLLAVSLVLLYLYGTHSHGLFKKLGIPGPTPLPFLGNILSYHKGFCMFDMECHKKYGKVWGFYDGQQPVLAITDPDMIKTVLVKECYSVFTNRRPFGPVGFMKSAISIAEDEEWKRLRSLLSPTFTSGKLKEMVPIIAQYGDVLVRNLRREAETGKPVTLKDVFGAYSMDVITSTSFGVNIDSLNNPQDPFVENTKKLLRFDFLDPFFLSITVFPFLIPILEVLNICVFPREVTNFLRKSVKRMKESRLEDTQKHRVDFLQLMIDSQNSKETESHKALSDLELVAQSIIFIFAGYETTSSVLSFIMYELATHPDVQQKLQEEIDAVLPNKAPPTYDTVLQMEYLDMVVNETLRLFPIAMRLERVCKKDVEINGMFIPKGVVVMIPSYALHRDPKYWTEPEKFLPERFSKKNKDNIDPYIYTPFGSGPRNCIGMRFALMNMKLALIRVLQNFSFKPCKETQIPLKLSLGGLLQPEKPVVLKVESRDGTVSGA
Description: as §1

[2] = Metabolic stability in rat liver microsomes; format: in vitro ADME; settings: 37 °C, NADPH, 0-60 min, read-out: RLM Stability (rat liver microsomal intrinsic clearance)
Description: as §2

CYP1A2 = target: T4, CYP1A2 (Homo sapiens, UniProt P05177); test: Cytochrome P450 inhibition assay, CYP1A2; format: in vitro ADME; settings: 10 μM compound, human liver microsomes 0.25 mg/mL, substrate phenacetin
T4 construct: from tissue; host or cells: human liver microsomes
T4 sequence (P05177 1-516): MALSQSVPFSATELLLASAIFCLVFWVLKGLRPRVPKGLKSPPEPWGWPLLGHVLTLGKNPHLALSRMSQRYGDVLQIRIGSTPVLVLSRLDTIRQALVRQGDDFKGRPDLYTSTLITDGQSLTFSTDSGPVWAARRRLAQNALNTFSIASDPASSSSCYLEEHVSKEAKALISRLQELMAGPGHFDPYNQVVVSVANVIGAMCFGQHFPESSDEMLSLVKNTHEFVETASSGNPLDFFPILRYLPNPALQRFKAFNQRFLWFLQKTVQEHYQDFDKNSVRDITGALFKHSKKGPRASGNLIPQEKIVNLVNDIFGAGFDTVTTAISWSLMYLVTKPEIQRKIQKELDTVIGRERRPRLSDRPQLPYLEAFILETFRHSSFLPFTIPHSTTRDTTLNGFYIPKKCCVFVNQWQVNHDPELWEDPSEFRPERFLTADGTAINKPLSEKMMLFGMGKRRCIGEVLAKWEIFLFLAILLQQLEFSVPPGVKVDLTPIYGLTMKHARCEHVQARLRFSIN
Description: as §1

CYP2C9 = target: T5, CYP2C9 (Homo sapiens, UniProt P11712); test: Cytochrome P450 inhibition assay, CYP2C9; format: in vitro ADME; settings: human liver microsomes, pH 7.4, probe diclofenac (5 μM), 10 μM compound, human liver microsomes 0.25 mg/mL, substrate diclofenac, read-out: CYPs Direct Inhibition Mean (10 μM) 2C9
T5 construct: from tissue; host or cells: human liver microsomes
T5 sequence (P11712 whole entry): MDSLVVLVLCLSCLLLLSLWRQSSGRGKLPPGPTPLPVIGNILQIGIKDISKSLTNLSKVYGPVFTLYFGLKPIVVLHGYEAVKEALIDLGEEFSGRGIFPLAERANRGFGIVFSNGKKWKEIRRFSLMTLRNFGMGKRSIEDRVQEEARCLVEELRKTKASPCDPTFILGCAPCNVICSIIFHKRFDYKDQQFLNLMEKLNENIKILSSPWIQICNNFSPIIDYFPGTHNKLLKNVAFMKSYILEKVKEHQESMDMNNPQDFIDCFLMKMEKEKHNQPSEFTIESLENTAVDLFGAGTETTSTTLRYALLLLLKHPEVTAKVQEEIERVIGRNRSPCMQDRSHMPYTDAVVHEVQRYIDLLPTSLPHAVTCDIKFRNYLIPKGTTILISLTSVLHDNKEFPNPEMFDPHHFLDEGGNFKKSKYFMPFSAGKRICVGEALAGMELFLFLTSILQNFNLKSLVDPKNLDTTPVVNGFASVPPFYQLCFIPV
Description: as §1

activity weaker than the reference compound (fold) (CETP; IC50 versus reference compound anacetrapib): 10 fold
IC50 (CETP; read-out: IC50 (CETP inhibition)): 0.38 ± 0.08 µM
CYPs Direct Inhibition Mean (10 μM) 2D6 (CYP2D6): No inhibition
inhibition at 10 min, 10 µM (CYP2D6; pH 7.4, probe dextromethorphan (5 μM), read-out: CYPs Direct Inhibition Mean (10 μM) 2D6): < 20%
microsomal CLint at 10 μM [1]: 119 µL/min/mg
inhibition at 10 min, 10 µM (CYP3A4): < 20%
microsomal CLint at 10 μM [2]: 146 µL/min/mg
CYPs Direct Inhibition Mean (10 μM) 1A2 (CYP1A2): No inhibition
inhibition at 10 min, 10 µM (CYP1A2; pH 7.4, probe phenacetin (10 μM), read-out: CYPs Direct Inhibition Mean (10 μM) 1A2): < 20%
inhibition at 10 min, 10 µM (CYP2C9): < 20%
SMILES: COc1ccc(C(C)C)cc1C1=C(CN(Cc2cc(C(F)(F)F)cc(C(F)(F)F)c2)c2nnn(CC(=O)O)n2)CC(C)(C)CC1 [Compound 17, N-(3,5-Bis(trifluoromethyl)benzyl)-N-((2-(5-isopropyl-2-methoxyphenyl)-5,5-dimethylcyclohex-1-enyl)-methyl)-2H-tetrazol-5-amine-2-acetic acid]
